Test results: patent publication US8242152B2, “Use of 4-[(4-thiazolyl)phenoxy]alkoxy-benzamidine derivatives for the prophylaxis and treatment of osteoporosis” (Dong Wha Pharmaceutical Co., Ltd., priority 2001, dated 2012)
Several values for one entry are separate records, joined by “and”; a condition that tells them apart may be missing. Identical values can stand only once. Like-named read-outs stand apart in the source and are kept apart here.

Tests used:
[1] = tested on: osteoclast differentiation; experiment: Osteoclast differentiation, co-culture, TRAP(+)MNCs (Example 5); assay type: cell-based, mice; settings: for % inhibitory action / inhibition at 0.01 µM / inhibition at 0.1 µM / inhibition at 1 µM: day 6; for inhibition at 0.01 µM / inhibition at 0.1 µM / inhibition at 1 µM: Mus musculus, Osteoclast, 144 h, read-out: % inhibitory action
Experimental: To investigate the effect of compounds on osteoclast differentiation, co-culture between bone marrow cells (2.5×10^5 cells/cm^2) and calvaria-derived osteoblastic cells (4×10^4 cells/cm^2) was conducted in the presence of 1.25(OH)2D3(10^−8 M) and dexamethasone (10^−7 M) with α-MEM containing 10% FBS (referred as “osteoclastic medium”). Bone marrow cells were isolated from the femora of 6-week-old ddY mice and primary osteoblastic cells were isolated from the calvariae of newborn ICR mice by sequential digestion with 0.2% collagenase. The medium was changed every two days with fresh osteoclastic medium. An index of osteoclast formation was determined by counting TRAP-positive multinucleated osteoclasts (TRAP(+)MNCs). On day 6, the cells were fixed with 10% formaldehyde and stained for TRAP. The number of TRAP(+) MNCs containing more than 6-7 nuclei was counted under a microscope (ZEISS Axiovert 25, Switzerland). The results are shown as the relative inhibitory activity (% inhibition) compared to the control group.

[2] = tested on: osteoclast activity (resorption pits); experiment: Bone resorption pit formation assay on dentine slice (Example 5); assay type: cell-based, mice; settings: for Inhibitory activity (%) / inhibition at 0.01 µM / inhibition at 0.1 µM / inhibition at 1 µM: dentine slice, 24 h; for inhibition at 0.01 µM / inhibition at 0.1 µM / inhibition at 1 µM: Mus musculus, Osteoclast, read-out: Inhibitory activity (%)
Experimental: Method for evaluating the effects of the compounds on osteoclast activity: Multinucleated osteoclasts were developed on collagen gel plates by co-culture system as described. On day 6-8 of the co-culture, multinucleated OCLs were detached from plates by 0.2% collagenase treatment (“crude OCLs”). Crude OCLs suspended in α-MEM containing 10% FBS were placed on a dentine slice (4 mm diameter) in a 96-well culture plate. […] At the end of the incubation, cells were removed by 1 M NH4OH treatment and resorption pits formed (in the slices stained with Mayer's hematoxylin). Resorption pits were enumerated with an image analyzer and compared to the control group.

[3] = tested on: osteoclast fusion; experiment: Osteoclast fusion assay with purified prefusion osteoclasts (Example 5); assay type: cell-based, mice; settings: for inhibition at 0.08 µM / inhibition at 0.4 µM / inhibition at 2 µM / inhibition at 10 µM: read-out: Inhibitory action (%)
Experimental: The effect of the compounds on the fusion of osteoclasts was examined using purified prefusion osteoclasts (pOC, mononuclear and binuclear osteoclasts). Co-cultures of bone marrow cells (2×10^7 cells/dish) and newborn mice calvariae (1×10^6 cells/dish) were maintained in 100-mm-diameter dishes for 4 days with osteoclast differontiarion factor. Cultures were washed twice with PBS and treated with 0.1% collagenase/dispase at 37° C. for 20 minutes. Released cells, mostly osteoblasts, were removed with a pipet and the plates were washed three times with PBS. The remaining cells were incubated with 30 uM echistatin in α-MEM containing 1% BSA for 20 min at 37° C. These cells were collected, pelleted, and washed once with α-MEM containing 10% FBS. The cells released by this treatment were the subject of the fusion assay. More than 90% of the cells in the pOCs preparation used in the present study were positive for TRAP.
pOCs (15,000 cells/well) were plated on 96 well culture plates with or without various compounds. After culture for 18 hours, the cells were fixed and stained for TRAP.

[4] = tested on: osteoclast fusion; experiment: Fusion assay of prefusion osteoclasts (Example 2); assay type: cell-based, mice; settings: 24 hrs; for inhibition at 0.08 µM / inhibition at 0.4 µM / inhibition at 2 µM / inhibition at 10 µM: read-out: Inhibitory action (%)
Description: This assay is designed to evaluate the influences of each test substance in terms of osteoclast fusion during the differentiation process in which immature prefusion osteoclasts (pOC; osteoclast structure with one more nuclei) were transformed into mature multinucleated osteoclast (OCL) via cell to cell fusion (Gregg Wesolowski et al. Experimental Cell Research 219,679-686, 1995).
The prefusion osteoclast can be obtained via co-culture of both bone marrow cells and osteoblast, as prepared from Example 1. The mixture of both osteoblast (about 5×10^5 cells/plate) and bone marrow cells (about 1×10^7 cells/plate) were co-cultured in a 100 mm culture dish. Some differentiation factors, such as dexamethasone (10^−6M) and vitamin D3 (10^−9M), were added to the medium from the first day of culture. The medium was changed with a fresh medium containing differentiation factors every 2 days.
Since a great number of the prefusion osteoclasts having one or more nuclei in fusion process were formed during 4-day co-culture, the cells were separated and co-cultivation after 4 days. The medium was removed from the cells and with the addition of 0.2% collagenase solution (4 mL), the cells were incubated at 37° C. for 20 mins to separate the attachment cells. Since the majority of separated cells were osteoblasts, all osteoblasts were washed with PBS solution two or three times for their complete removal.
After the remaining prefusion osteoclasts were separated via reaction for 20 mins with the addition of echistatin containing 10% BSA, the cells were harvested by centrifuge.
The test substances diluted at each concentration were diluted at the desired concentration in α-MEM medium (addition of 10% FBS) to load them into a 96-well microplate in a dose of 100 uL per well. The osteoclastic monocytes, so separated from the preceding No. 1, were plated on a 96-well microplate in a dose of 5×10^3 cell/100 uL per well and cultured at 37° C. for 24 hrs, thus successfully resulting in the osteoclast fusion. In the case of specimen-free and positive controls, experiments were performed in the same manner as above.
The medium was removed from the cells and then the cells were washed once with PBS and fixed to a PBS solution containing 10% formalin for about 5 mins. The cells were again fixed to both ethanol and acetone (1/1) in a mixing solution for about 5 mins and dried off. The cells were further treated by TRAP staining solution for 15 mins and washed with water to observe the cells under the microscope. The TRAP-positive osteoclast counts, which were differentiated from monocyte to multinucleated cells (osteoclast having more than 10 nuclei) via fusion process, were measured.

[5] = tested on: Primary osteoblastic cells; experiment: ALP activity in primary osteoblastic cells (Example 5); assay type: cell-based, ICR mice; settings: for ALP activity (% of control) / ALP activity (Unit): 3 days
Experimental: Primary osteoblastic cells isolated from the calvariae of newborn ICR mice were grown to confluence in α-MEM containing 10% FBS. These cells were plated at a density of 1×10^5/ml in tissue culture dishes. After 24 h, cells were changed with a differentiation medium containing ascorbic acid (50 ug/ml) and β-glycerophosphate (10 mM) with or without the compounds and further cultured for 3 days. Cells were washed twice with PBS and harvested. For the measurement of ALP activity and total protein content, cells were extracted into 0.1% Triton X-100 in PBS containing 1 mM MgCl2 and centrifuged at 1.000×g for 5 minutes. Enzyme activity was determined in supernatants by colorimetric procedure using p-nitrophenyl phosphate (PNP) as a substrate at a wavelength of 405 nm and the protein content was determined by a Bio-Rad protein assay kit. The ALP unit was expressed as nmol PNP/ug protein/min.

[6] = target: LTB4 receptor (Homo sapiens, UniProt Q15722); set-up: endogenous in cells; host or cells: human neutrophils (PMN) purified from fresh blood; settings: cited from earlier work
[7] = Mus musculus, Osteoclast, 0.08 uM, 18 hours
[8] = Mus musculus, Osteoclast, 0.4 uM, 18 hours
[9] = Mus musculus, Osteoclast, 2 uM, 18 hours
[10] = Mus musculus, Osteoclast, 10 uM, 18 hours
[11] = Mus musculus, Osteoclast, 0.08 uM
[12] = Mus musculus, Osteoclast, 0.4 uM
[13] = Mus musculus, Osteoclast, 10 uM

Sequence of LTB4 receptor (Q15722 whole entry): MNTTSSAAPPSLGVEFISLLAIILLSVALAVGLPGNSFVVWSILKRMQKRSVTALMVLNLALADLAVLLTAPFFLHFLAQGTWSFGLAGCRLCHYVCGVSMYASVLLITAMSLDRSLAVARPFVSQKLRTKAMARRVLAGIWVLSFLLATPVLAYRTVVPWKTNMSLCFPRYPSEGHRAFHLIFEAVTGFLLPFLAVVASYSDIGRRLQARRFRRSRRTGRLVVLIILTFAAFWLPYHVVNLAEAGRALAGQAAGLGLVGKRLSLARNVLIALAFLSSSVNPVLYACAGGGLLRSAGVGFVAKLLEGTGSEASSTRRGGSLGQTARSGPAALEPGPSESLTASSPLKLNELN

Compound | ALP activity (% of control) ([5]; 0.01 uM) | ALP activity (Unit) ([5]; 0.01 uM) | ALP activity (% of control) ([5]; 0.1 uM) | ALP activity (Unit) ([5]; 0.1 uM) | Inhibition (%) of LTB4 receptor binding ([6]; 1 uM) | inhibition at 0.01 µM ([1]; 0.01 uM) | inhibition at 0.1 µM ([1]; 0.1 uM) | inhibition at 1 µM ([1]; 1 uM) | inhibition at 0.01 µM ([2]; 0.01 uM) | inhibition at 0.1 µM ([2]; 0.1 uM) | inhibition at 1 µM ([2]; 1 uM) | inhibition at 0.08 µM [3, 7] | inhibition at 0.4 µM [3, 8] | inhibition at 2 µM [3, 9] | inhibition at 10 µM [3, 10] | inhibition at 0.08 µM [4, 11] | inhibition at 0.4 µM [4, 12] | inhibition at 2 µM ([4]; Mus musculus, Osteoclast, 2 uM) | inhibition at 10 µM [4, 13] | other results
4-[5-[4-(aminoiminomethyl)phenoxy]pentoxy]-3-methoxy-N,N-bis(1-methylethyl)benzamide maleic acid [CGS-25019C] | 121.3 % of control | 20.6 nmol PNP/ug protein/min | 115.3 % of control | 19.7 nmol PNP/ug protein/min | – | – | – | – | – | – | – | – | – | – | – | – | – | – | – | % inhibitory action ([1]; 0.01 uM): 11.2%; % inhibitory action ([1]; 0.1 uM): 29.5%; % inhibitory action ([1]; 1 uM): 36.9%; Inhibitory activity (%) ([2]; 0.01 uM): 0(−24) %; Inhibitory activity (%) ([2]; 0.1 uM): 10.4%; Inhibitory activity (%) ([2]; 1 uM): 24.8%; Inhibitory action (%) ([3]; 0.08 uM, 18 hours): 10.14%; Inhibitory action (%) ([3]; 0.4 uM, 18 hours): 13.04%; Inhibitory action (%) ([3]; 2 uM, 18 hours): 13.77%; Inhibitory action (%) ([3]; 10 uM, 18 hours): 12.32%; Inhibitory action (%) ([4]; 0.08 uM): 10.14%; Inhibitory action (%) ([4]; 0.4 uM): 13.04%; Inhibitory action (%) ([4]; 2 uM): 13.77%; Inhibitory action (%) ([4]; 10 uM): 12.32%
Cc1nc(-c2ccc(OCCCCOc3ccc(C(=N)NO)cc3)cc2)c(C(C)C)s1 [DW1349, N— hydroxy-4-{4-[4-(5-isopropyl-2-methyl-1,3-thiazol-4-yl)phenoxy]butoxy}-benzamidine] | 113.2 % of control | 19.0 nmol PNP/ug protein/min | 101.6 % of control | 17.2 nmol PNP/ug protein/min | 87.2% | 31.9% | 46.8% | 85.5% | 19.3% | 36.1% | 64.7% | 0% | 2.3% | 4.5% | 18% | 0% | 2.3% | 4.5% | 18% | Inhibition (%) of LTB4 receptor binding ([6]; 100 nM): 32.7%
Cc1nc(-c2ccc(OCCCCCOc3ccc(C(=N)NO)cc3)cc2)c(C(C)C)s1 [DW1350, N-hydroxy-4-{5-[4-(5-isopropyl-2-methyl-1,3-thiazol-4-yl)phenoxy]pentoxy}-benzamidine] | 141.9 % of control | 24.4 nmol PNP/ug protein/min | 153.7 % of control | 26.7 nmol PNP/ug protein/min | 92.3% | 38.5% | 62.7% | 88.7% | 45.2% | 52.6% | 72.6% | 4.5% | 25.6% | 80% | 98% | 4.5% | 25.6% | 80% | 98% | Inhibition (%) of LTB4 receptor binding ([6]; 100 nM, 0.1 µM): 10% and < 10%; Inhibition (%) of LTB4 receptor binding ([6]; 100 nM, listed as 1350, 0.1 µM): <10%; times more inhibition of osteoclast differentiation than DW1349 ([1]; versus DW1349, Table 8): 1.34 times; times stronger inhibition of osteoclast differentiation than DW1351 ([1]; versus DW1351, Table 8): about two times better; times better than DW1349 in inhibiting osteoclast activity ([2]; versus DW1349, Table 10): about 1.45 times; times more inhibition of osteoclast activity than DW1351 ([2]; versus DW1351, Table 10): two-fold better inhibitor; times stronger inhibition of osteoclast fusion than DW1349 ([3]; 2 uM, versus DW1349): 17.8 times; IC50 ([3]; Mus musculus, Osteoclast, 18 hours): 810 nM; times more inhibition of osteoclast fusion than DW1351 ([3]; versus DW1351): two fold better inhibitor; IC50 ([4]; Mus musculus, Osteoclast): 810 nM; times better stimulator of osteoblast activity (ALP) than DW1349 ([5]; versus DW1349): 1.25 times; times greater stimulation of osteoblast activity (ALP) than DW1351 and DW1352 ([5]; versus DW1351 and DW1352): 1.15˜1.25 times
